Laboratory results taken from patent publication US10167507B2, “Metabolic diseases-related odorant receptor genes and use thereof” (INDUSTRY-ACADEMIC COOPERATION FOUNDATION, YONSEI UNIVERSITY, priority 2010, dated 2019).

Assays:
[1] = test system: olfactory receptors in visceral fat tissue; assay: OligoDNA microarray, visceral fat tissue of HFD mice fed odor components; format: in vivo, mouse; details: supplemented to HFD-fed mouse 10 weeks
Method: DNA microarry analysis using RNAs of visceral fat and liver tissue was conducted by GENOCHECK (CO., LTD.). RNA samples were pooled from 10 mice in each experimental group and subjected to microarray experiments in triplicate for the test of reproducibility. NimbleGen Mouse Whole Oligo 12-plex chip used in this experiment was prepared by triplicating 42,576 genes using Mouse Genome Build 8 as database. In NimbleGen mouse Whole Oligo 12-plex chip, 137,090 spots excluded control group gene were spotted by 16 μm×16 μm size in 17.4 mm×13 mm size. 42,576 oligo included 137,145 genes which are known their functions and 5,431 transcripts and EST sequences which are unknown their functions. 10-50 μg of total RNA was added in oligo-dT primer, reverse transcriptase, dNTP, Cy3-dUTP and Cy5-dUTP, and reverse-transcripted according to the kit manufacturer's recommendations. The resultant was purified using cartridge, dried and dissolved in hybridization buffer solution (30 μL). The microarray was placed in hybridization cassette, heated at 95-100° C. for 5 min, mixed independently to each of RNA labeled with Cy3 and Cy5, and hybridized at 45° C. for 18 hrs. The slide was washed twice in solution containing 1×SSC and 0.1% SDS for 5 min, washed in 1×SSC for 5 min and dried to analyze.

[2] = test system: olfactory receptors in liver tissue; assay: OligoDNA microarray, liver tissue of HFD mice fed odor components; format: in vivo, mouse
Excerpt: (§1) The obesity-inducing control diet used in the test was high-fat diet (HFD: 40% fat calorie, 17 g lard+3% corn oil/100 g diet). Diets supplemented with an odor component had the same composition as HFD, except that each of various types of odor components (indol-3-carbinol, oleuropein, cedryl acetate, α-cedrene and piperine) having anti-obesity efficacy was contained in 0.02-0.05% concentration. Indo)-3-carbinol, oleuropein, cedryl acetate, a-cedrene and piperine were purchased from Sigma-Aldrich.
(§2) After adding Trizol agent to visceral fat or liver tissue, the mixture was homogenized and centrifuged at 12,000×g for 10 min at 4° C. The supernatant was transferred to a new tube to remove fat layer. Then, 200 μl of chloroform was added to the tube, followed by vortexing. The same procedure was repeated twice and then the supernatant was transferred to a new tube, followed by addition of isopropanol and the supernatant at 1:1 ratio. The mixture was vigorously shaken 10 times and then incubated for 10 min at room temperature, followed by centrifugation at 12,000×g for 10 min at 4° C. to remove the supernatant. After adding 1 mL of 70% ethanol to the remaining pellet, it was centrifuged at 7,500×g for 5 min at 4° C. After removing the ethanol, the RNA pellet contained in the tube was dried for 5 min at 4° C. and dissolved in nuclease-free water. The RNA sample concentration was measured at a wavelength of 260 nm and 280 nm using a UV/VIS spectrophotometer (Beckman coulter, DU730) and the integrity of RNA sample was verified by agarose gel electrophoresis.
(§3) DNA microarry analysis using RNAs of visceral fat and liver tissue was conducted by GENOCHECK (CO., LTD.). RNA samples were pooled from 10 mice in each experimental group and subjected to microarray experiments in triplicate for the test of reproducibility. NimbleGen Mouse Whole Oligo 12-plex chip used in this experiment was prepared by triplicating 42,576 genes using Mouse Genome Build 8 as database. In NimbleGen mouse Whole Oligo 12-plex chip, 137,090 spots excluded control group gene were spotted by 16 μm×16 μm size in 17.4 mm×13 mm size. 42,576 oligo included […] genes which are known their functions and 5,431 transcripts and EST sequences which are unknown their functions. 10-50 μg of total RNA was added in oligo-dT primer, reverse transcriptase, dNTP, Cy3-dUTP and Cy5-dUTP, and reverse-transcripted according to the kit manufacturer's recommendations. The resultant was purified using cartridge, dried and dissolved in hybridization buffer solution (30 μL). The microarray was placed in hybridization cassette, heated at 95-100° C. for 5 min, mixed independently to each of RNA labeled with Cy3 and Cy5, and hybridized at 45° C. for 18 hrs. The slide was washed twice in solution containing 1×SSC and 0.1% SDS for 5 min, washed in 1×SSC for 5 min and dried to analyze.
(§4) The profile for olfactory receptors in which the expression was regulated by more than 2-fold change due to intake of odor components at each tissue was shown in Tables 5. As a result, it was determined that various types of odor components having anti-obesity efficacy regulated a plurality of olfactory receptors in peripheral tissues.

[3] = test system: olfactory receptors in visceral fat and liver tissues; assay: OligoDNA microarray, visceral fat and liver tissues of HFD mice fed odor components (tissue not separated in text); format: in vivo; details: supplemented to mouse fed high-fat diet for 10 weeks
Excerpt: as §1, §2, §3, §4

[4] = supplemented to HFD-fed mouse 10 weeks

OCc1c[nH]c2ccccc12 [Indole-3 carbinol]
Olfr380 expression fold change to HFD group [1]: 2.20
Olfr909 expression fold change to HFD group [1]: 3.45
Olfr972 expression fold change to HFD group [1]: 0.43
Olfr1093 expression fold change to HFD group [1]: 0.42
Olfr1165 expression fold change to HFD group [1]: 0.39
Olfr1462 expression fold change to HFD group [1]: 2.26
Olfr16 expression fold change to HFD group [2, 4]: 0.47
Olfr116 expression fold change to HFD group [2, 4]: 2.12
Olfr178 expression fold change to HFD group [2, 4]: 2.06
Olfr196 expression fold change to HFD group [2, 4]: 0.45
Olfr259 expression fold change to HFD group [2, 4]: 0.50
Olfr290 expression fold change to HFD group [2, 4]: 2.11
Olfr466 expression fold change to HFD group [2, 4]: 0.49
Olfr686 expression fold change to HFD group [2, 4]: 0.35
Olfr1045 expression fold change to HFD group [2, 4]: 0.45
Olfr1153 expression fold change to HFD group [2, 4]: 2.82
Olfr1216 expression fold change to HFD group [2, 4]: 0.41
Olfr1329 expression fold change to HFD group [2, 4]: 0.48
Olfr1337 expression fold change to HFD group [2, 4]: 0.49

CC1=CC[C@@]23C[C@@H]1C(C)(C)[C@@H]2CC[C@H]3C [α-cedrene]
expression of olfactory receptor 38 [2]: increased
expression of olfactory receptor 878 [2]: increased
expression of olfactory receptor 1045 [2]: decreased
Olfr38 expression fold change to HFD group [2, 4]: 3.83
Olfr878 expression fold change to HFD group [2, 4]: 5.87
Olfr1045 expression fold change to HFD group [2, 4]: 0.43
Olfr1222 expression fold change to HFD group [2, 4]: 2.15
expression of olfactory receptor 38 increased [3]: more than 2 fold change
expression of olfactory receptor 878 increased [3]: more than 2 fold change
expression of olfactory receptor 1045 decreased [3]: more than 2 fold change
expression of olfactory receptor 1222 increased [3]: more than 2 fold change
